Source: EP0434750B1 (priority 1988, dated 1990)
Where “and” joins values, the source holds several entries; their conditions need not be identical. Equal values may be shown once. Read-outs that look alike come from different tables or passages of the source.

Assays:
[1] = test system: monkeys (Macaca fascicularis); test: Dopamine and homovanillic acid levels in monkey brain samples (HPLC); format: in vivo; conditions: short-term chloroquine and MPTP; monkeys S1-3
[2] = test system: Tyrosine hydroxylase (TH); test: Tyrosine hydroxylase activity in monkey brain homogenate (tritium release method); format: in vivo, Macaca fascicularis; conditions: short-term chloroquine and MPTP; monkeys S1-3
Method: (§5) Thirteen male monkeys (Macaca fascicularis) 5 to 8 years old, weighing 3.5 to 4.8 kg, are studied. […] Nine receive daily (0.35 mg per kg) injections of MPTP i.v. for four days. Three animals (M1-3) who received no chloroquine are the untreated controls. Six animals are pretreated with chioroquine (4 mg per kg) intramuscularly; three (S1-3) are pretreated for 12 days, and three (L1-3) for 24 days. All six pretreated animals continue to receive chloroquine injections during MPTP administration and for 10 days following MPTP exposure.
Detection is done electrochemically on a glassy carbon electrode (Bioanalytical Systems Inc.) at an applied voltage of 0.65 V. Plasma levels of chloroquine are determined by HPLC with UV detection. Samples are deproteinated with 0.2 vol. of 25% trichloroacetic acid followed by centrifugation at 4°C for 30 minutes at 1,000 g. Supernatants are removed, lyophilized overnight and reconstituted with 80 µl of 0.1 M perchloric acid. Samples are analyzed directly using reverse-phase HPLC with a Whatman ODS-3 column (Whatman) and Pellosil C8 guard column (Alltech). The mobile phase for this system is 40% acetonitrile, 0.1 M sodium phosphate (pH 3.0) with 75 mM perchloric acid. Absorption is detected at 343 nm (Bergqvist, Y. et al., Chromat. 221, 2503 (1985)). Tyrosine hydroxylase (TH) activity is assayed by the tritium release method of Nagatsu, T. et al., Analyt. […] Supernatant fluid (50 µl) from brain homogenate (1 g tissue in 20 vol 50 mM Tris, H 7.4) are added to 7 ml glass scintillation vials containing 5 µl 6 DL-6-methyl-5,6,7,8-tetrahydropterine (2.8 mg ml^-1), 5 µl FeSO4 (2.78 mg ml ^-1) and 1 µC of ring labelled [^3H]tyrosine. Mixtures are incubated 30 minutes at 37°C and the reaction terminated by adding 50 µl 3 M Na2CO3, pH 11.6. Toluene/isoamyl alcohol scintillant (5 ml) is then added directly to the vial and the contents mixed for 10 seconds. The aqueous and organic phases are allowed to separate and the ^3H2O extracted into the organic phase determined.

[3] = test system: monkeys (Macaca fascicularis); test: Neurological examination of MPTP-treated monkeys with or without chloroquine pretreatment; format: in vivo; conditions: for Neurological Status: Reflexes / Neurological Status: Tone: control score 2; for Neurological Status: Spontaneous Movement: control score 10; for Neurological Status: Total (x 5.26): control 100; for Neurological Status: Tremor: control score 5
From the text: Four animals are naive controls. […] TABLE 3

[4] = cynomolgus monkey, in vivo
Method: as §5
Detection is done electrochemically on a glassy carbon electrode (Bioanalytical Systems Inc.) at an applied voltage of 0.65 V. Plasma levels of chloroquine are determined by HPLC with UV detection. Samples are deproteinated with 0.2 vol. of 25% trichloroacetic acid followed by centrifugation at 4°C for 30 minutes at 1,000 g. Supernatants are removed, lyophilized overnight and reconstituted with 80 µl of 0.1 M perchloric acid. Samples are analyzed directly using reverse-phase HPLC with a Whatman ODS-3 column (Whatman) and Pellosil C8 guard column (Alltech). […] Absorption is detected at 343 nm (Bergqvist, Y. et al., Chromat. 221, 2503 (1985)). […] The aqueous and organic phases are allowed to separate and the ^3H2O extracted into the organic phase determined.

[5] = test system: C57 black mice; test: Silver degeneration study of striatal nerve terminals (Fink-Heimer); format: in vivo
Method: Nerve terminal degeneration studies are performed using the method of Fink, R.P. et al., Brain Research 4, 369 (1967) (Procedure 1). This method makes possible selective silver impregnation of degenerating nerve fibers and terminals. Mice for these studies are killed under sodium pentobarbital anesthesia (40 mg/kg) by transcardial perfusion with 10% formal saline. The brain is immediately removed and stored in perfusion fluid at 0-4°C for at least one week before being sectioned on a freezing microtomee. 30 µm coronal sections are collected in 5% formal saline, then stained with silver according to Fink et al., supra.
Some fine granular degeneration is also found in the nucleus accumbens and olfactory tubercle, but in these regions it was much less dense. No such degeneration is found in identically treated sections of control mice, or in other brain regions visible in coronal brain sections at the level of the striatum.

[6] = test system: crude striatal synaptosomal suspensions; test: In vitro accumulation of [3H]DA by crude striatal synaptosomal suspensions; format: biochemical, mice; conditions: for Km: read-out: Km(µm) of [^3H]DA uptake
Method: (§1) All other studies are performed in C57 black mice.
The in vitro accumulation of [^3H]DA by crude striatal synaptosomal suspensions is measured using the method of Snyder, S.H. et al., J.Pharmacol.Exp.Ther. 165, 78 (1968) with minor modifications. Briefly, crude synaptosomal suspensions are prepared by homogenizing striatal tissue in 50 vols. (w/v) of ice-cold 0.32 M sucrose, then centrifuging the homogenate for 10 minutes at 1,000 x g. […] After vortexing, tubes (except temperature blanks) are incubated in a waterbath at 37°C for five minutes, then returned to ice. Synaptosomes are harvested by filtration. Filters are rinsed twice with 5 ml aliquots of physiological saline. Radioactivity in the filters is quantified by liquid scintillation spectroscopy. Assays are performed in sextuplicate at each DA concentration, with half of the samples serving as blanks. Active uptake is defined as the difference between [^3H]DA (PM/mg tissue/5 min.) incubation at 37°C after correction for uptake at 0-4°C.

[7] = test system: squirrel monkeys; test: Treatment of MPTP-induced parkinsonism in squirrel monkeys; format: in vivo; conditions: i.p. MPTP, three dosage schedules (Groups A-C)
Method: Male squirrel monkeys (aged 2-3 years) are used for this study. […] All injections are intraperitoneal.
Three different dosage schedules of MPTP are used. Monkey Group A receives four doses, 2 mg/kg each, which are given at two-hour intervals. Monkey Group B is treated over a five-day period. On day 1, a single 2 mg/kg dose is given. On day 3, two injections of 2 mg/kg each are given, six hours apart. On day 5, a 3 mg/kg dose is given followed by a 0.5 mg/kg dose four hours later (total dose: 9.5 mg/kg). Three doses of 3 mg/kg each are given to Monkey Group C, spaced at six-day intervals. Monkey Group D serves as a control.
A similar response to the same treatment is observed on each of the next four days. Subsequently, the animal becomes less responsive to medication and is sacrificed on day 10. One monkey in Group B responds to Sinemet® (one-eighth of a 10/100 tablet) with full mobility on day 9. However, on subsequent days, […] becomes increasingly less responsive to medication, often appearing uncoordinated and shaky. This monkey is sacrificed on day 15. […] Three days later, this monkey becomes profoundly hypokinetic, develops slow respirations, and dies.
After increased bradykinesis and frequent nodding-off are observed in the monkeys, several monkeys of Groups A, B and C are administered melanin by injection into the cerebrospinal fluid at a dose of 50 mg/kg daily. […]

[8] = Binding of MPTP to synthetic dopamine melanin (Scatchard analysis)
Method: Synthetic dopamine melanin is prepared by autooxidation (Lyden et al., supra). The dopamine melanin suspension (in distilled water) is adjusted to contain 5 mg melanin per ml. Both pigment suspensions are stored at 2°C.
(§2) The reaction mixtures are incubated at room temperature for one hour. Reference samples contain distilled water instead of melanin.
(§3) From the obtained data, the classes of binding sites, association constants and the binding capacity of the melanins are estimated according to Scatchard, G. et al., J. Am. Chem. Soc. 79, 12 (1957). As the molecular weight of melanin is unknown, the value for the number of binding sites is expressed as mol per mg melanin. The calculations are based on a melanin content of 2.5 mg per incubation.

[9] = Lethality of MPTP regimens in mice; format: in vivo; conditions: mouse, in vivo, ip
Method: as §1
(§4) Approximately 20% of the mice die after the 20 mg/kg/h x 4 regimen. […]

[10] = test system: C57 black mice; test: Lethality of MPTP regimens in mice; format: in vivo; conditions: 2.5, 5 and 10 mg/kg/h x 4 MPTP regimens
Method: as §1, §4

[11] = test system: C57 black mice; test: Striatal DA, DOPAC and HVA content in mice after MPTP; format: in vivo
Method: Male C57BL/6J IMR mice 6-8 weeks of age are used throughout except in one experiment (see below) in which CB6F1 [(BALB/cByJ IMR x C57BL/gJ IMR)F1] mice of a similar age are used. Mice are housed five per cage in plexiglass cages with free access to food and water in a colony room maintained at 23 ± 1°C. Fluorescent lighting in the room is automatically turned on at 06.00 hours and off at 18.00 hours.
as §1
The mouse striatum is obtained by placing the brain on its dorsal surface and making two coronal cuts; the first at the caudal end of the olfactory bulbs, the second at the level of the optic chiasma. After placing the resulting brain slice on its rostral surface, one horizontal cut is made just below the corpus callosum and another just above the anterior commissure. Remaining parietotemporal cortex is trimmed away using the external capsule as a landmark. Septal tissue lying between the caudate nuclei is removed by cutting along the tissue planes created by the frontal horns of the lateral ventricles. Striatal tissue thus isolated weighs approximately 20 mg per animal. Immediately after dissection, tissue is wrapped in aluminum foil and stored in liquid nitrogen until assay, with the exception of tissue for uptake studies which is used immediately.
The striatum is weighed, placed in a tube containing 1 ml of 0.4 normal perchloric acid, then homogenized with a Beckman polytron at a setting of 5 for 10 seconds. The homogenate is centrifuged at approximately 20,000 x g for 15 minutes. Concentrations of dopamine (DA), DOPAC and HVA in the supernatant are determined by reverse-phase liquid chromatography coupled with electrochemical detection according to the method of Mayer, G.S. et al., J. Chromatogr. 255, 533 (1983), with minor modifications. The mobile phase is prepared by mixing 965 ml of 0.15 M monochloroacetic acid with 35 ml of acetonitrile and adding 193 mg of sodium octyl sulfate. This solution is filtered and degassed and then 18 ml of tetrahydrofuran are added. Using this mobile phase at a flow rate of 1.3 ml/min, DA, DOPAC and HVA are resolved using a 4.6 mm x 25 cm C-18, 5 µ column (Brownless Labs). Detection and quantitation are performed using a dual series electrode detector (Coulochem Model 5100, Environmental Systems Associates, Wiggins, Mass.). Electrode potentials are set at +0.4 V (electrode 1) and -0.3 V (electrode 2). The response on electrode 2 is monitored (10 mV strip chart recorder) and used for quantitation relative to peak heights of known amounts of standards.

[12] = molecular target: [^3H]mazindol binding site, striatal membranes (Mus musculus, UniProt Q61327); conditions: three weeks after MPTP 20 mg/kg/h x 4
[^3H]mazindol binding site, striatal membranes, sequence (Q61327 whole entry): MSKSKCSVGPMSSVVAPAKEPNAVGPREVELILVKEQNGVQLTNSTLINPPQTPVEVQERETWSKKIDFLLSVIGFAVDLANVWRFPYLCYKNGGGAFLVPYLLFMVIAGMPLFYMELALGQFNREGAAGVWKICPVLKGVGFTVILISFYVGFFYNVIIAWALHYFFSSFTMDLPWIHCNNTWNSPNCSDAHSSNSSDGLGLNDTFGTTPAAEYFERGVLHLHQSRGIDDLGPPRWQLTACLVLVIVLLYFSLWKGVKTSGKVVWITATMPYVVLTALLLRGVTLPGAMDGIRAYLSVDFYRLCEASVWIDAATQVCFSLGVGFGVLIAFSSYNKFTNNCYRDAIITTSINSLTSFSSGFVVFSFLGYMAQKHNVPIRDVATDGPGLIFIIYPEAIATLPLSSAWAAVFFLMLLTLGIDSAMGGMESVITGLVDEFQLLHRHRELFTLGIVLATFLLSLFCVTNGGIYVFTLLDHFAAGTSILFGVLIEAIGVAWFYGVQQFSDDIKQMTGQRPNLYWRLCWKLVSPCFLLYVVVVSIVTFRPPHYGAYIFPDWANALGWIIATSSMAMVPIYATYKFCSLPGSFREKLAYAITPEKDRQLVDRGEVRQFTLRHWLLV
Method: This group is used only for anatomical studies looking for cell loss in the substantive nigra cells (SNc). All other studies are performed in C57 black mice.

[13] = Binding of MPTP to beef eye melanin (Scatchard analysis)
Method: Melanin from beef eyes is prepared according to Potts, A.M., Ophthalmol. 3, 405 (1964). The pigment is finally suspended in distilled water to a concentration of 10 mg (by dry weight) per ml suspension.
as §2, §3

[14] = long-term chloroquine (24 days) plus MPTP, monkeys L1-3
[15] = short-term chloroquine (12 days) plus MPTP, monkeys S1-3
[16] = one week after MPTP 20 mg/kg/h x 4
[17] = three months after MPTP 20 mg/kg/h x 4

SMILES: CCN(CC)CCCC(C)Nc1ccnc2cc(Cl)ccc12 (stereo not shown) [Chloroquine]
- CAUDATE HVA [1]: 8.0 nmol per g tissue and 10.5 nmol per g tissue and 9.2 nmol per g tissue
- PUTAMEN HVA [1]: 10.1 nmol per g tissue and 8.6 nmol per g tissue and 9.8 nmol per g tissue
- CAUDATE TH (% control) [2]: 14.0 % control and 18.7 % control and 22.6 % control
- PUTAMEN TH (% control) [2]: 20.0 % control and 23.3 % control and 29.8 % control
- protection from MPTP-induced parkinsonian clinical symptoms ([3]; chloroquine 4 mg per kg i.m. pretreatment, 12 or 24 days): Five of the six monkeys
- Neurological Status: Reflexes [3, 14]: 1 and 2
- Neurological Status: Tone [3, 14]: 1.5 and 1 and 2
- Neurological Status: Spontaneous Movement ([3]; short-term chloroquine 4 mg per kg i.m., pretreated 12 days, plus MPTP, monkeys S1-3): 3
- Neurological Status: Total (x 5.26) [3, 15]: 47 and 58 and 42
- Neurological Status: Reflexes [3, 15]: 1 and 2
- Neurological Status: Tone [3, 15]: 2 and 1
- Neurological Status: Tremor [3, 15]: 3 and 4
- Chloroquine level relative to that in other monkeys monitored [4]: * Chloroquine level is 36% of that in other monkeys monitored.
- Chloroquine in plasma ([4]; im, 4 mg/kg): 300 ng ml^-

SMILES: C#CCN(C)Cc1ccccc1 [pargyline]
- evidence of striatal terminal degeneration ([5]; pretreated with 25 mg/kg of pargyline, then MPTP 20 mg/kg/h x 4): None of three mice

SMILES: NCCc1ccc(O)c(O)c1 [[^3H]DA, dopamine]
- Km ([6]; striatal synaptosomes of control mice): 0.14 ± 0.02 µM

SMILES: CN1CC=C(c2ccccc2)CC1 [MPTP, 1-Methyl-4-phenyl-1,2,5,6-tetrahydropyridine]
- behavioural effect of MPTP [7]: profoundly akinetic
- number of binding sites n1 ([8]; first class of binding sites): n1 = 0.08 µ mole per mg melanin
- association constant K1 ([8]; first class of binding sites, 60 min): K1 = 5.82 x 10^5 M^-1
- association constant K2 ([8]; second (intermediary) class of binding sites, 60 min): K2 = 1.22 x 10^4 M^-1
- number of binding sites n2 ([8]; second class of binding sites): n2 = 0.05 µ mole per mg melanin
- number of binding sites n3 ([8]; third class of binding sites): n3 = 0.14 µ mole per mg melanin
- association constant K3 ([8]; third class of binding sites, 60 min): K3 = 7.68 x 10^2 M^-1
- mortality ([9]; 20 mg/kg/h x 4 regimen, read-out: mice that die): ~20%
- mortality ([9]; read-out: animals killed): > 50%
- lethality [10]: No lethality
- striatal DA level, % of control ([11]; 15 months after MPTP 20 mg/kg/h x 4): 69 % of control
- striatal concentration of DOPAC ([11]; MPTP 20 mg/kg/h x 4, control 0.96 (±0.14)): 0.28 (±0.02) µg/g
- striatal concentration of HVA ([11]; MPTP 20 mg/kg/h x 4, control 1.38 (±0.05)): 0.60 (±0.06) µg/g
- DA ([11]; mouse striatum one week after MPTP 20 mg/kg/h x 4 i.p.): 2.8 ± 0.5 µg/g
- DA ([11]; mouse striatum one week after MPTP 30 mg/kg/day x 10 i.p.): 3.5 ± 0.3 µg/g
- % Depletion of striatal DA [11, 16]: 74%
- HVA, % of control [11, 16]: 43 % of control
- striatal DA level, % of control [11, 16]: 28 % of control
- % Depletion of striatal DA ([11]; one week after MPTP 30 mg/kg/day x 10): 67%
- HVA, % of control [11, 17]: 80 % of control
- depletion of striated DA [11, 17]: 34%
- HVA ([11]; three months after MPTP, control 1.36 ± 0.11): 1.09 ± 0.04 µg/g
- DOPAC ([11]; three months after MPTP, controls 1.53 ±0.09 µg/g): 1.03 ± 0.03 µg\g
- Vmax of [^3H]DA striatal uptake, % of control [6, 16]: 37 % of control
- decrease of Vmax of striatal synaptosomal [^3H]DA uptake [6, 16]: 62%
- Vmax of [^3H]DA uptake ([6]; one week after MPTP 20 mg/kg/h x 4, control 5540 ± 480): 2080 ± 305 cpm[^3H]DA/mg tissue/5 min
- Km ([6]; striatal synaptosomes of mice one week after MPTP 20 mg/kg/h x 4): 0.12 ± 0.02 µM
- Vmax of [^3H]DA striatal uptake, % of control [6, 17]: 79 % of control
- Vmax of [^3H]DA striatal uptake ([6]; three months after MPTP, control 6238 (± 520)): 4928 (± 408) CPM [^3H]DA/mg tissue/5 min
- reduction of Bmax of [^3H]mazindol binding sites [12]: 44%
- Bmax of [^3H]mazindol binding ([12]; control 361): 201 pmol/g tissue
- fine granular argyrophilic debris in striata ([5]; MPTP 20 mg/kg/h x 4, killed one day later): Three of three mice
- Neurological Status: Spontaneous Movement ([3]; MPTP alone 0.35 mg per kg i.v. daily for four days, individual monkeys): 1
- Neurological Status: Total (x 5.26) ([3]; MPTP alone, individual monkeys): 16 and 29 and 8
- Neurological Status: Reflexes ([3]; MPTP alone, individual monkeys): 0.5 and 1.5 and 0
- Neurological Status: Tone ([3]; MPTP alone, individual monkeys): 0.5 (2×) and 2
- Neurological Status: Tremor ([3]; MPTP alone, individual monkeys): 1 (2×) and 0
- association constant K1 ([13]; MPTP 5.7 µM - […], room temperature, one hour, first class of binding sites, 60 min): K1 = 2.32 x 10^5 M^-1
- total binding capacity (Σn) ([13]; beef eye melanin): 0.53 µmol/mg melanin
- number of binding sites n1 ([13]; first class of binding sites): n1 = 0.09 µ mole per mg melanin
- number of binding sites n2 ([13]; second class of binding sites): n2 = 0.44 µ mole per mg melanin
- association constant K2 ([13]; second class of binding sites, 60 min): K2 = 1.22 x 10^3 M^-1
